Reference: PMC5766608, “Target engagement imaging of PARP inhibitors in small-cell lung cancer” (Nature Communications, 2018)
Like-named read-outs stand apart in the source and are kept apart here.

What was measured:
PARP2 [1] = target: T1, PARP2 (Homo sapiens, UniProt Q9UGN5); assay: PARP family enzyme activity inhibition screening (BPS Bioscience); type: biochemical; details: 100 nM inhibitor
T1 construct: purchased BPS Bioscience, San Diego, CA
Protocol: (§1) Fig. 1 Properties of PARP inhibitors. a Structures of 5 clinical therapeutic PARP inhibitors and the 2 PARP imaging agents. b Heatmap visualizing enzymatic activity screening of 10 small molecules against 12 PARP enzymes at 100 nM concentration (for additional concentrations, see Supplementary Fig. 1)
(§2) Assay was performed by BPS Bioscience, San Diego, CA. 100 µM DMSO solutions of each inhibitor were provided, and the assay was conducted after dilution to 100, 50, or 10 nM. […] Data was reported by BPS as % Enzyme Activity. Triplicates were combined to get a mean ± SD, and these were grouped and plotted onto a heatmap using Prism 7.
(§3) Supplementary Figure 1 | PARP enzyme family binding assays at additional concentrations.
(§4) histone substrate and biotin-labeled NAD+ at 100 nM (Fig. 1b), 50 nM (left) and 10 nM (right) for
(§5) each inhibitor and each enzyme.

PARP1 = target: T2, PARP1 (Homo sapiens, UniProt P09874); assay: as above; type: biochemical; details: 100 nM inhibitor
T2 construct: purchased BPS Bioscience, San Diego, CA
T2 sequence (P09874 whole entry): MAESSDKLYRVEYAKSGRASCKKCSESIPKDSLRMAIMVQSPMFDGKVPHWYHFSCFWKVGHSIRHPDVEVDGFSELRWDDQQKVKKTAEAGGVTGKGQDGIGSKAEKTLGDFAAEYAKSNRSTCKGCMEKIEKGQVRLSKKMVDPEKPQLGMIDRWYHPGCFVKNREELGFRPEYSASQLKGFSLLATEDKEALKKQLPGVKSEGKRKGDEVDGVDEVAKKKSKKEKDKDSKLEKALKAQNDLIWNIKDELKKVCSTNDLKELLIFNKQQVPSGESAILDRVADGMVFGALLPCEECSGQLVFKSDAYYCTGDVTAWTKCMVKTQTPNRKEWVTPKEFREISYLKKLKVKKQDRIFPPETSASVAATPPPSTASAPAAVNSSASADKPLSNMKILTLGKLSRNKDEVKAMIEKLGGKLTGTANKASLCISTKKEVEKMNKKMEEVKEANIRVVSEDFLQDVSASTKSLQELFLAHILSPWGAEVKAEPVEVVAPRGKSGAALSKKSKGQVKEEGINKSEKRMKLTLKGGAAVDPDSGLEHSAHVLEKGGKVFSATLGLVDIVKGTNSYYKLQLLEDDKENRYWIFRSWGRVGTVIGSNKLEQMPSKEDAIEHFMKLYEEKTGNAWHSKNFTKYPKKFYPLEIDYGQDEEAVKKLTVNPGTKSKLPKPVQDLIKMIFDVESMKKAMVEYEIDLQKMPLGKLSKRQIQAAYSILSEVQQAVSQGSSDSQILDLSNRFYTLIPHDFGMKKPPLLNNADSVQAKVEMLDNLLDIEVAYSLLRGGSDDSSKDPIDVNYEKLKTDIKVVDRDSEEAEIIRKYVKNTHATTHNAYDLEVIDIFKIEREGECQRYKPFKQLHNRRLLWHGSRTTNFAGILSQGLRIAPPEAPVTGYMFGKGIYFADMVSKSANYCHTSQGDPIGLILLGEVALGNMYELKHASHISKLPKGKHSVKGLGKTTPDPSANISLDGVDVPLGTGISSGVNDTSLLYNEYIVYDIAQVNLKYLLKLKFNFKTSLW
Protocol: as §1, §2, §3, §4, §5

PARP3 = target: T3, PARP3 (Homo sapiens, UniProt Q9Y6F1); assay: as above; type: biochemical; details: 100 nM inhibitor
T3 construct: purchased BPS Bioscience, San Diego, CA
T3 sequence (Q9Y6F1 1-533): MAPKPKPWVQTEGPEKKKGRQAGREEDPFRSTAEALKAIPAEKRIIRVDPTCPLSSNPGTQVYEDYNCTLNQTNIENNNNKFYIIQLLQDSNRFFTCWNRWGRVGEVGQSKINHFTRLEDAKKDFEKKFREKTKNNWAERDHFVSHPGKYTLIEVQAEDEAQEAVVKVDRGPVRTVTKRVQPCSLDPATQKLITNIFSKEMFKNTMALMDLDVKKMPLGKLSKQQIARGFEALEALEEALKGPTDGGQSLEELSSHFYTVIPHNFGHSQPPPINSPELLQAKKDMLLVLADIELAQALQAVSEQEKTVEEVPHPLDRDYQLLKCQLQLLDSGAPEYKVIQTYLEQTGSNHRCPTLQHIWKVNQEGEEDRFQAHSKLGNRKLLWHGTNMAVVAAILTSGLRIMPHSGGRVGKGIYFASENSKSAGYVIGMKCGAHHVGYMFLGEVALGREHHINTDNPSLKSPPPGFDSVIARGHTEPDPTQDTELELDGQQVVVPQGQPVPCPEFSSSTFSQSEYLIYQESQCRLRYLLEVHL
Protocol: as §1, §2, §3, §4, §5

PARylation in LX22 cells = assay: PARylation inhibition assay (western blot for PAR); type: cell-based, human; details: 0.1 µM, 30 min incubation
Protocol: Whole cell lysates were prepared by incubating cells with RIPA Buffer with Triton X (BP-140, Boston BioProducts) containing Protease Inhibitor (Complete EASYpacks, Sigma-Aldrich) for 30 min on ice, followed by 30 min centrifugation at 10,000 × g for 30 min at 4 °C. Protein concentration of lysates was determined using a Bicinchoninic acid (BCA) assay kit (#23225, Pierce) and following the manufacturers instructions. SDS gel electrophoresis and immunoblotting were carried out following standard procedures. Signal detection was carried out using chemiluminescent substrate (#34077, Thermo Scientific). Densitometric analysis of western blots was carried out using ImageJ (NIH). To detect PAR, we used a rabbit polyclonal anti-PAR polymer antibody (1:1000 dilution, #4336-BPC-100, Trevigen) followed by a goat anti-rabbit IgG-HRP secondary antibody (1:10,000 dilution, sc-2004, SantaCruz). B-actin was used as loading control (1:1000 dilution, A3854, Sigma-Aldrich) and was stained after stripping the blot for 30 min at room temperature using stripping buffer (Amresco).
Supplementary Figure 3 | PARylation inhibition assay.
PARPi-FL and [18F]PARPi quantify PARP inhibition, we compared their ability to inhibit PARylation
in comparison with olaparib.
inhibition. At 1 µM, the PAR signal for all three compounds is nearly completely eliminated.

PARP = details: cited from earlier work
PARP1/2 [2] = details: olaparib 50 mg/kg; for Initial blocking (t = 1 h): talazoparib 0.3 mg/kg i.v., 60 min between drug and tracer
Protocol: Error bars represent the SD
All PET/CT images (n = 90) were acquired on an Inveon PET/CT (Siemens) and reconstructed scans were analyzed using the Inveon Research Workplace Software (Siemens). To acquire PET/CT images, animals were anesthetized with 2% isoflurane and positioned on the scanner bed. […] PET data were collected for 5–10 min, followed by CT.
Activity concentration was quantified by averaging the mean values taken from VOIs drawn over the entire tumor as it appeared in the CT and portrayed as a mean %ID/g ± SD.

PARP1/2 [3] = assay: Ex vivo autoradiography of target engagement; details: olaparib 50 mg/kg, talazoparib 0.3 mg/kg, 30 min prior to tracer; tumor collected 2 h post tracer
Excerpt: Sections from 3 different tumor areas from each tumor (n = 3/group) were exposed to an autoradiography plate overnight and read the next day. ImageJ was used to quantify the signal intensity of each tissue. Adjacent sections were used for PARP1 IHC and H&E staining to confirm tissue identity and PARP1 expression.

PARP1/2 [4] = details: for Blocking of [18F]PARPi tumor uptake (target engagement): 30 min before tracer, PET 2 h later
Excerpt: Fig. 7 Variable dose blocking.
The control group received no therapeutic inhibitor.

PARP2 [5] = target: T1, PARP2; assay: PARP2 IC50 assay (BPS Bioscience, Strep-HRP, histone substrate); type: biochemical; details: footnote a: see Supplementary Fig. 2
Protocol: Assays were performed by BPS Bioscience, San Diego, CA. […] Data was reported by BPS a`s % enzyme activity curve from 0.03 nM or 0.1 nM to 1000 nM.

T1 sequence (Q9UGN5 whole entry): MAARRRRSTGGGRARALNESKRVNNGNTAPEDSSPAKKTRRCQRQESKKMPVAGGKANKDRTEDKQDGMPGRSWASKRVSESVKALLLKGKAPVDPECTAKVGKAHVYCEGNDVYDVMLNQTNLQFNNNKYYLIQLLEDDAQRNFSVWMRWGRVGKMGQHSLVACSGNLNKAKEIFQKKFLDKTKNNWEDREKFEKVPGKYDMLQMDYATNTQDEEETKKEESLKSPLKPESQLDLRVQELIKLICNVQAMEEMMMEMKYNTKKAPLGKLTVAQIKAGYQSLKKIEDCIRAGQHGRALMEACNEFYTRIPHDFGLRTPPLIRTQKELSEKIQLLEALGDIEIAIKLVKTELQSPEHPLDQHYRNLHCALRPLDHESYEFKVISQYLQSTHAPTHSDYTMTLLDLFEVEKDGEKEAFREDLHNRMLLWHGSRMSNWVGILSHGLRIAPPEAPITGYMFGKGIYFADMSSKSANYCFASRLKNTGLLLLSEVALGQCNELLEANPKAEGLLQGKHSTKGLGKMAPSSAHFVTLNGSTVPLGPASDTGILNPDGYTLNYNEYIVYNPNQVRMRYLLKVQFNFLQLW

inhibition at 0.1 µM (PARP2 [1]) [%] | inhibition at 0.1 µM (PARP1) [%] | inhibition at 0.1 µM (PARP3) [%] | IC50 (PARP2 [5]) [nM] | Compound | Inhibition of PARP2 enzyme activity (PARP2 [1]) [%] | Inhibition of PARP1 enzyme activity (PARP1) [%] | Inhibition of PARP3 enzyme activity (PARP3) [%] | Inhibition of PARylation (PAR signal) (PARylation in LX22 cells) | PARP trapping, in words (PARP) | Initial blocking (t = 1 h) (PARP1/2 [2]) [%] | Initial blocking (t = 1 h) (PARP1/2 [2]; listed as talazoparib) [%] | AUC (PARP1/2 [2]; target engagement over 48 h, single dose, talazoparib 0.3 mg/kg) [%h] | t1/2 (weighted) (PARP1/2 [2]; two phase decay fit of target engagement, talazoparib 0.3 mg/kg) [h] | [18F]PARPi tumor uptake blocked (autoradiography) (PARP1/2 [3]) [%] | Blocking of [18F]PARPi tumor uptake (target engagement) (PARP1/2 [4]; 0.3 mg/kg i.v.) [%] | Blocking of [18F]PARPi tumor uptake (target engagement) (PARP1/2 [4]; 0.9 mg/kg i.v.) [%] | Blocking of [18F]PARPi tumor uptake (target engagement) (PARP1/2 [4]; 5 mg/kg i.v.) [%] | Blocking of [18F]PARPi tumor uptake (target engagement) (PARP1/2 [4]; 15 mg/kg i.v.) [%] | 50% blocking dose (PARP1/2 [4]; single-phase decay curve fit, JHU-LX48 PDX tumor) [mg/kg]
 |  |  |  | O=C(c1ccc(F)cc1)N1CCN(C(=O)c2cc(Cc3n[nH]c(=O)c4ccccc34)ccc2F)CC1 [^19F-PARPi] | > 90 | > 90 | ≤ 30 | nearly complete inhibition |  |  |  |  |  |  |  |  |  |  | 
 |  |  |  | Cn1ncnc1[C@H]1c2n[nH]c(=O)c3cc(F)cc(c23)N[C@@H]1c1ccc(F)cc1 [Talazoparib, (8S,9R)-5-Fluoro-8-(4-fluorophenyl)-9-(1-methyl-1H-1,2,4-triazol-5-yl)-2,7,8,9-tetrahydro-3H-pyrido[4,3,2-de]phthalazin-3-one] |  |  |  |  | most effective PARP trapping agent | 56 | 56 | 1021 | 9.8 | 45 | 50 | 64 | 89 | 84 | 0.36
> 90 | > 90 | ≤ 30 | 0.31 | CC1=CC(C)=[N+]2C1=Cc1ccc(CCC(=O)N3CCN(C(=O)c4cc(Cc5n[nH]c(=O)c6ccccc56)ccc4F)CC3)n1[B-]2(F)F [PARPi-FL] |  |  |  | reduced PAR signal, but not complete |  |  |  |  |  |  |  |  |  |  | 
